Assay results as given in US12606543B2, “Indole derivatives as serotonergic agents useful for the treatment of disorders related thereto” (priority 2023, dated 2026).
Read-outs that look alike come from different tables or passages of the source.

Experiments:
human 5-HT2B receptor = human 5-HT2B receptor (Homo sapiens, UniProt P41595); assay: Human 5-HT2B radioligand binding assay ([3H]-LSD)
Procedure: The objective of this study was to evaluate the binding properties of test compounds on 5-HT2B.
1) The assay buffer was prepared following Table 29 below.
2) Eight doses of reference and test compounds starting from 10 mM stock solution as requested by 5-fold serial dilutions with 100% (v/v) DMSO.
3) UniFilter-96 GF/B plate was pretreated: • a. 50 μL/well of 0.5% (v/v) PEI to UniFilter-96 GF/B plates. The plates were sealed and incubated at 4° C. for 3 hrs. • b. After incubation, the plates were washed 3 times with ice-cold wash buffer (50 mM Tris, pH 7.4).
4) Assay plate preparation: • a. Cell membrane was diluted with assay buffer and 330 μL/well added to 96 round deep well plates to reach a concentration of 1 unit/well. • b. Eight concentrations of reference or test compounds were prepared and 110 μL/well added to 96 round deep well plates. • c. [3H]-LSD was diluted with assay buffer to 5 nM (5× final concentration) and 110 μL/well was added to 96 round deep well plates.
5) The plate was centrifuged at 1000 rpm for 30 secs and then agitated at 600 rpm at room temperature for 5 mins.
6) The plates were sealed and incubated at 37° C. for 90 mins.
7) The incubation was stopped by vacuum filtration onto GF/B filter plates followed by washing four times with ice-cold wash buffer (50 mM Tris, pH7.4).
9) The filter plates were sealed and 40 μL/well of scintillation cocktail was added.
10) The plate was read using a Microbeta2 microplate counter.
(§1) For reference and test compounds, the results are expressed as % Inhibition, using the normalization equation: N=100−100×(U−C2)/(C1−C2), where U is the unknown value, C1 is the average of high controls, and C2 is the average of low controls. The IC50 is determined by fitting percentage of inhibition as a function of compound concentrations with Hill equation.
The objective of this study is to evaluate the binding properties of test compounds on 5-HT2B.
1) The assay buffer was prepared following Table 59 below.
3) UniFilter-96 GF/B plate was pretreated: • a. 50 μL/well of 0.5% (v/v) PEI to UniFilter-96 GF/B plates. The plates were sealed and incubate at 4° C. for 3 hrs. • b. After incubation, the plates were washed three times with ice-cold wash buffer (50 mM Tris, pH7.4).
5) The plate was centrifuged at 1000 rpm for 30 secs and then agitated at 600 rpm at room temperature for 5 min.
8) The plates were dried at 37° C. for 45 mins.
10) The plate was read using a Microbeta^2 microplate counter.
as §1, with “average of the high controls,” for “average of high controls,”, “average of the low controls.” for “average of low controls.”

[1] = Plasma protein binding by equilibrium dialysis, human; assay type: in vitro ADME; details: for fraction unbound at 6 h, 1 μM: read-out: % Bound (converted); for recovery at 6 h, 1 µM: human, plasma
Procedure: The final concentration of compound was 1 μM. The final concentration of DMSO was 0.5%. Ketoconazole was used as positive control in the assay.
The assay was performed in duplicate.
All calculations were carried out using Microsoft Excel. […] The percentages of bound compound were calculated as follows: […]
Ketoconazole was used as positive control in the assay.

[2] = [3H]-LSD displacement, cell membrane, 37° C., 90 min, read-out: 5-HT2B, IC50
[3] = [3H]-LSD displacement, cell membrane, 37° C., 90 min, read-out: 5-HT2B, Ki
[4] = human plasma, equilibrium dialysis, 37° C., 6 hours

human 5-HT2B receptor, sequence (P41595 whole entry): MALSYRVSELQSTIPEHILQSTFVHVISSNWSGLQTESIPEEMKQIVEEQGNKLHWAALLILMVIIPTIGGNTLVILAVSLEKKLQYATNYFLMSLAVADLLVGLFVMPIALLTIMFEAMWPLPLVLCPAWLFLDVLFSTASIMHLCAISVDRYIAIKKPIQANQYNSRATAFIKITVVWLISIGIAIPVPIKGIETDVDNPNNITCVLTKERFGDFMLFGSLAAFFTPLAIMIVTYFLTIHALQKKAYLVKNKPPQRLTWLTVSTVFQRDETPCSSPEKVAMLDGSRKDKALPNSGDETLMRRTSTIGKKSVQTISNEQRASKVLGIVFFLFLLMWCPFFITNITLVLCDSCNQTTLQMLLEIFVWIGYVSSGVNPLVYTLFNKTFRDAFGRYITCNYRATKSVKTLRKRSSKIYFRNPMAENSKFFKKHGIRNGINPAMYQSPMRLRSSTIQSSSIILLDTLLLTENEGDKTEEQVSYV

SMILES	IC50 (human 5-HT2B receptor) [nM]	Ki (human 5-HT2B receptor) [nM]	% Remaining @ 6 hours ([1]; Human plasma, 1 μM, 6 hours, 37° C.) [%]	fraction unbound at 6 h, 1 μM ([1]; Human plasma, 1 μM, equilibrium dialysis 6 hours, 37° C.)	recovery at 6 h, 1 µM ([1]; Human plasma, 1 μM, equilibrium dialysis 6 hours) [%]	IC50 (human 5-HT2B receptor; [2]) [nM]	Ki (human 5-HT2B receptor; [3]) [nM]	% Remaining @ 6 hours ([1]; human plasma, 6 hours) [%]	fraction unbound at 6 h, 1 μM [1, 4]	recovery at 6 h, 1 µM [1, 4] [%]
CSc1ccc2[nH]cc(C[C@H]3CCCN3C)c2c1 [(R) I-1, (R)-3-((1-Methylpyrrolidin-2-yl)methyl)-5-(methylthio)-1H-indole]	19	9.82	103.38	0.16	102					
[2H]C([2H])(c1c[nH]c2ccc(OCCCCCN3C(=O)C4CCCCC4C3=O)cc12)[C@H]1CCCN1C([2H])([2H])[2H] (mixture of isomers) [Rac (R) I-248]						46.3	23.9			
[2H]C([2H])(c1c[nH]c2ccc(OCCCCN3C(=O)c4ccccc4C3=O)cc12)[C@H]1CCCN1C([2H])([2H])[2H] [(R) I-244, (R)-2-(4-((3-((1-(Methyl-d3)pyrrolidin-2-yl)methyl-d2)-1H-indol-5-yl)oxy)butyl)isoindoline-1,3-dione]						21.4	11.1	105.89	0.0142	90.1
COCCN1CCC[C@@H]1Cc1c[nH]c2ccc(OC)cc12 [(R) I-98, (R)-5-Methoxy-3-((1-(2-methoxyethyl)pyrrolidin-2-yl)methyl)-1H-indole]						45.6	23.6	104.64	0.168	101
